In one data set the target is CDK6/Cyclin D1 (Homo sapiens (Human), UniProt Q00534). As to the kind of experiment: CDK6/CyclinD1 enzymatic activity assay (TR-FRET). In kind it is biochemical. Conditions: CDK6/Cyclin D1 1 nM, ATP 250 μM, read-out: CDK6_D1 IC50. How it is done:
CDK6/CyclinD1 Enzymatic Activity Assay
The inhibitory activity of compounds was evaluated in vitro using TR-FRET assay with white 384-well low volume microplate (Greiner Bio-One). CDK6/Cyclin D1 catalyzed phosphorylation of peptide in the presence and absence of compounds was measured and used in IC50 determination. Recombinant protein complex CDK6/Cyclin D1, expressed from insect cell, was purchased from ProQinase. Testing compounds were dissolved in DMSO at 0.1 mM and tested in 9-dose IC50 mode. The reaction mixture was prepared by mixing CDK6/Cyclin D1 (1 nM final), ULight-4E-BP1 (100 nM final, Perkinelmer, TRF0128-D), and ATP (250 μM final) in assay buffer (20 mM of HEPES pH 7.4, 1 mM of EGTA, 0.05% BSA, 0.005% Tween 20, and 1 mM TCEP). The compound of interest in DMSO was added to each well in 3-fold serial dilution by dispenser (TECAN D300E). After 20 minutes preincubation at room temperature, 0.1 μL MgCl2 (10 mM final) was added to initiate the reaction. Following a 60 minutes incubation at 37° C., the reaction was stopped by addition of 2 μL of quenching buffer consisting of Lance detection buffer (Perkinelmer CR97-100C), 2 nM LANCE Ultra Europium-anti-P-4E-BP1 (Perkinelmer, TRF0216-D), 10 mM EDTA, and incubate at room temperature for additional 60 minutes in dark. The reaction signal was measured by Envision multimode plate reader (PerkinElmer, 2102-0010). IC50 values were determined by fitting the data to the standard 4 parameters with Hill Slope using GraphPad Prism software.

A further data set has as its target CDK4/Cyclin D1 (Homo sapiens (Human), UniProt P11802). Description: CDK4/CyclinD1 enzymatic activity assay (TR-FRET). In kind it is biochemical. As to conditions: CDK4/CyclinD1 1 nM, ATP 2 mM, read-out: CDK4_D1 IC50. An outline of the steps: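 Insect-cell CDK4/Cyclin D1 (1 nM) with ULight-4E-BP1 (100 nM) and 2 mM ATP in HEPES pH 7.4 buffer, preincubated 20 min with compound (9-dose, 3-fold dilutions); 10 mM MgCl2 started the reaction, run 60 min at 37 °C. EDTA/Eu-anti-phospho-4E-BP1 TR-FRET detection; IC50 from 4-parameter Hill fit.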

Data set [1] relates to MCF7 adenocarcinoma cell line. As to the kind of experiment: Cell proliferation studies in MCF7 cells (ATP-Lite). Type of data set: cell-based. As to conditions: Homo sapiens, 240 h, 10 days incubation, cell viability by ATP-Lite luminescence, read-out: PROLIFERATION_CTG_MCF7 IC50. An outline of the steps: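 MCF7 cells, seeded at 100 or 200 cells/well, were exposed for 10 days at 37 °C to a 9-point, 3-fold dilution series in quadruplicate, with media exchange and re-dosing on day 5. Viability was read by ATP-Lite luminescence, normalized to background and DMSO, and fitted for IC50.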

Data set [2] can be described thus: Brain-to-plasma ratio determination in Sprague-Dawley rats. In kind it is in vivo. Conditions: rat, male Sprague-Dawley rats, four hours after a single oral dose (3, 4, 5, or 10 mg/kg). How it is done:
Example B: Brain-to-Plasma Ratio Determination in Sprague-Dawley Rats
The brain-to-plasma ratio (Kp) was determined in male Sprague-Dawley rats (7-9 weeks old) four hours after a single oral dose. Rats were acclimated and given free access to standard rodent chow and water throughout the entire study. Test articles were formulated as a solution at 0.3, 0.4, 0.5, or 1.0 mg/mL in a vehicle comprised of 10:15:75 (v:v:v) dimethylacetamide (DMA):Solutol HS15:water and delivered orally at a rate of 10 mL/kg to three rats to achieve final doses of 3, 4, 5, or 10 mg/kg, respectively. At 4 hours post-dose, blood samples were collected via jugular vein cannula into tubes containing K2EDTA as the anticoagulant and stored on ice. Blood samples were then centrifuged at 4° C. at 6000 rpm for 5 minutes, and the resulting plasma was placed into tubes and stored frozen at −80° C. until analysis. Whole brain samples were also collected at 4 hours post-dose. The weight of each brain was measured and recorded, and samples were immediately stored on dry ice. Brain samples were then transferred to storage at −80° C. until analysis.
Prior to analysis, brain samples were combined with water (4 mL/1 gram of brain) and homogenized. Prior to injection, plasma and brain homogenate samples and standards were prepared for analysis by precipitation with acetonitrile or 1:1 (v:v) methanol:acetonitrile. Samples were then thoroughly mixed, centrifuged at 4000 rpm for 15 minutes, and the resulting supernatant was transferred for analysis. Test article concentrations in plasma and brain homogenate were then determined by LC-MS/MS and quantified against calibration standards prepared to known concentrations in matched blank (analyte-free) biological matrix. The Kp was then determined by dividing the dilution-corrected brain concentration by the plasma concentration from each rat. A brain density of 1 gram/mL was assumed for all calculations.

CDK6/Cyclin D1, sequence (Q00534 whole entry): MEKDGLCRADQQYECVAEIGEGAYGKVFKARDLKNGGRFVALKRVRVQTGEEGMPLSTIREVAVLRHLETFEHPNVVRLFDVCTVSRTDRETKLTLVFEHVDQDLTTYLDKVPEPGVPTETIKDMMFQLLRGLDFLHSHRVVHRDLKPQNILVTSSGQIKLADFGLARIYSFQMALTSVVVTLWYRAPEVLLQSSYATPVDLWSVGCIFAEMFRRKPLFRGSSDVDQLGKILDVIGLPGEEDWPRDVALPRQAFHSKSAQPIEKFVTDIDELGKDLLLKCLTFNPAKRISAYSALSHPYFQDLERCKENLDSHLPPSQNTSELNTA
CDK6/Cyclin D1, sequence (P24385 whole entry partner): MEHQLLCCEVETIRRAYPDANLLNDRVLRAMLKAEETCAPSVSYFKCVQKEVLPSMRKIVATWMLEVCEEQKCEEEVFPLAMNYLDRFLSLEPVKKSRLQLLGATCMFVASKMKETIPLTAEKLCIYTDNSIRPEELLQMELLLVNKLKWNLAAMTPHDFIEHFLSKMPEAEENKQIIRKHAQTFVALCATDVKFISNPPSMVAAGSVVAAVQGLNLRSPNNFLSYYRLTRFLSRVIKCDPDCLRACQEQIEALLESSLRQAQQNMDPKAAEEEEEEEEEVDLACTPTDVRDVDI
CDK4/Cyclin D1, sequence (P11802 whole entry): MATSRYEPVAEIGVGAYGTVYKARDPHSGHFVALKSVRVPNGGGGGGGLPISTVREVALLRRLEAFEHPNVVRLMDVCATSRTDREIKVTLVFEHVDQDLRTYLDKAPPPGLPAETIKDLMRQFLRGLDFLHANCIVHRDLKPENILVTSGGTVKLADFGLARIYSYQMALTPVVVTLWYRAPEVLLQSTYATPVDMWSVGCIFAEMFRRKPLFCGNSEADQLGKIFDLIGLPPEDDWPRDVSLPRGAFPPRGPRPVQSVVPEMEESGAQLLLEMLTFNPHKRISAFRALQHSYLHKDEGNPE
CDK4/Cyclin D1, sequence (P24385 whole entry partner): as the sequence (P24385 whole entry partner) above

In general, Kp refers to tissue or fluid exposure divided by exposure in the circulation. Regarding `CCN1CC2(C1)CN(c1ccc(Nc3ncc(F)c(-c4cc5c(s4)C4(CCCC4)CN(C)C5=O)n3)nc1)C2` [Example 1, 2′-(2-((5-(6-Ethyl-2,6-diazaspiro[3.3]heptan-2-yl)pyridin-2-yl)amino)-5-fluoropyrimidin-4-yl)-5′-methyl-5′,6′-dihydro-4′H-spiro[cyclopentane-1,7′-thieno[3,2-c]pyridin]-4′-one], the results for the IC50 (on CDK6/Cyclin D1; at CDK4/Cyclin D1; in data set [1]) were not above 20 nM, not above 20 nM and 20 to 200 nM, respectively. For the same molecule, the Kp at 4 h in data set [2] is 1 to 3.

Consider `CN1CCC(c2ccc(Nc3ncc(F)c(-c4cc5c(s4)C4(CCCC4)CN(C)C5=O)n3)nc2)CC1` [Example 2, 2′-(5-Fluoro-2-((5-(1-methylpiperidin-4-yl)pyridin-2-yl)amino)pyrimidin-4-yl)-5′-methyl-5′,6′-dihydro-4′H-spiro[cyclopentane-1,7′-thieno[3,2-c]pyridin]-4′-one], for which the results for the IC50 (at CDK6/Cyclin D1; at CDK4/Cyclin D1; in data set [1]) were not above 20 nM, not above 20 nM and 20 to 200 nM, respectively. Further, in data set [2], the Kp at 4 h fell in the range of 1 to 3.

Regarding `CCN1CCN(c2ccc(Nc3ncc(F)c(-c4cc5c(s4)C4(CCCC4)CN(C)C5=O)n3)nc2)CC1` [Example 3, 2′-(2-((5-(4-Ethylpiperazin-1-yl)pyridin-2-yl)amino)-5-fluoropyrimidin-4-yl)-5′-methyl-5′,6′-dihydro-4′H-spiro[cyclopentane-1,7′-thieno[3,2-c]pyridin]-4′-one], the IC50 is not above 20 nM on CDK6/Cyclin D1, not above 20 nM on CDK4/Cyclin D1 and 20 to 200 nM in data set [1]. In addition, in data set [2], the Kp at 4 h is not below 3.

In the case of `Cc1c(-c2nc(Nc3ccc(N4CC5(CCN(C)C5)C4)cn3)ncc2F)sc2c1C(=O)N(C)C21CC1` [Example 14, 2′-(5-Fluoro-2-((5-(6-methyl-2,6-diazaspiro[3.4]octan-2-yl)pyridin-2-yl)amino)pyrimidin-4-yl)-3′,5′-di methyl spiro[cyclopropane-1,6′-thieno[2,3-c]pyrrol]-4′(5′H)-one], the IC50 (on CDK4/Cyclin D1; in data set [1]) was not above 20 nM in each case. In data set [2], the Kp at 4 h was 1 to 3.

For the molecule `Cc1c(-c2nc(Nc3ccc(C4CCCN(C)C4)cn3)ncc2F)sc2c1C(=O)N(C)C21CC1` (stereo not drawn) [Example 15, 2′-(5-Fluoro-2-((5-(1-methylpiperidin-3-yl)pyridin-2-yl)amino)pyrimidin-4-yl)-3′,5′-dimethylspiro[cyclopropane-1,6′-thieno[2,3-c]pyrrol]-4′(5′H)-one], the values for the IC50 (on CDK4/Cyclin D1; in data set [1]) were not above 20 nM and 20 to 200 nM, respectively. In data set [2], the concentration ratio (Kp) at 4 h lay within 1 to 3.

Take `CCN1C(=O)c2cc(-c3nc(Nc4ccc(C5CCCN(C)C5)cn4)ncc3C)sc2C12CC2` (stereo not drawn) [Example 18, 5′-Ethyl-2′-[5-methyl-2-[[5-(1-methylpiperidin-3-yl)pyridin-2-yl]amino]pyrimidin-4-yl]spiro[cyclopropane-1,6′-thieno[2,3-c]pyrrole]-4′-one]: the IC50 on CDK4/Cyclin D1 was not above 20 nM; in data set [1], 20 to 200 nM. For the same molecule, the Kp at 4 h in data set [2] fell in the range of 1 to 3.

In the case of `CN1CC2(CCCC2)c2sc(-c3nc(Nc4ccc(N5CCOCC5)cn4)ncc3F)cc2C1=O` [Example 62, 2′-(5-Fluoro-2-((5-morpholino-pyridin-2-yl)amino)pyrimidin-4-yl)-5′-methyl-5′,6′-dihydro-4′H-spiro[cyclopentane-1,7′-thieno[3,2-c]pyridin]-4′-one], the IC50 at CDK6/Cyclin D1 is 20 to 200 nM; at CDK4/Cyclin D1, not above 20 nM; in data set [1], 20 to 200 nM.

On to `[2H]C([2H])([2H])N1C(=O)c2c(sc(-c3nc(Nc4ccc(C5CCN(C)CC5)cn4)ncc3F)c2C)C12CC2` [Example 70, 2′-[5-Fluoro-2-[[5-(1-methylpiperidin-4-yl)pyridin-2-yl]amino]pyrimidin-4-yl]-3′-methyl-5′-(trideuteriomethyl)spiro[cyclopropane-1,6′-thieno[2,3-c]pyrrole]-4′-one], for which the results for the IC50 (at CDK6/Cyclin D1; on CDK4/Cyclin D1; in data set [1]) were not above 20 nM, not above 20 nM and 20 to 200 nM, respectively.

In the case of `Cc1c(-c2nc(Nc3ccc(C4CCN(C)CC4)cn3)ncc2F)sc2c1C(=O)NC21CC1` [Example 73, 2-[5-Fluoro-2-[[5-(1-methylpiperidin-4-yl)pyridin-2-yl]amino]pyrimidin-4-yl]-3-methylspiro[5H-thieno[2,3-c]pyrrole-6,1′-cyclopropane]-4-one], the IC50 (on CDK6/Cyclin D1; on CDK4/Cyclin D1; in data set [1]) was not above 20 nM in each case.

`CN1CCC(c2ccc(Nc3ncc(F)c(-c4cc5c(n4C)C4(CCCC4)CN(C)C5=O)n3)nc2)CC1` [Example 74, 2′-(5-Fluoro-2-((5-(1-methylpiperidin-4-yl)pyridin-2-yl)amino)pyrimidin-4-yl)-1′,5′-dimethyl-5′,6′-dihydrospiro[cyclopentane-1,7′-pyrrolo[3,2-c]pyridin]-4′(1′H)-one]: the IC50 at CDK6/Cyclin D1 is 20 to 200 nM; at CDK4/Cyclin D1, not above 20 nM; in data set [1], 20 to 200 nM.

With `CN1CCC(c2ccc(Nc3ncc(F)c(-c4cc5c(s4)C4(CCOCC4)CN(C)C5=O)n3)nc2)CC1` [Example 77, 2′-(5-Fluoro-2-((5-(1-methylpiperidin-4-yl)pyridin-2-yl)amino)pyrimidin-4-yl)-5′-methyl-2,3,5,5′,6,6′-hexahydro-4′H-spiro[pyran-4,7′-thieno[3,2-c]pyridin]-4′-one], the IC50 at CDK6/Cyclin D1 was 20 to 200 nM; on CDK4/Cyclin D1, not above 20 nM; in data set [1], 20 to 200 nM.

For the molecule `Cc1cnc(Nc2ccc(C3CCN(C)CC3)cn2)nc1-c1cc2c(s1)C1(CC1)N(C)C2=O` [Example 80, 5′-Methyl-2′-(5-methyl-2-((5-(1-methylpiperidin-4-yl)pyridin-2-yl)amino)pyrimidin-4-yl)spiro[cyclopropane-1,6′-thieno[2,3-c]pyrrol]-4′(5′H)-one], the IC50 on CDK6/Cyclin D1 is 20 to 200 nM; on CDK4/Cyclin D1, not above 20 nM; in data set [1] it was not above 20 nM.

Regarding `CCN1CC2(C1)CN(c1ccc(Nc3ncc(F)c(-c4cc5c(s4)C4(CCCC4)CN(C)C5=O)n3)nn1)C2` [Example 82, 2-[2-[[6-(6-Ethyl-2,6-diazaspiro[3.3]heptan-2-yl)pyridazin-3-yl]amino]-5-fluoropyrimidin-4-yl]-5-methylspiro[6H-thieno[3,2-c]pyridine-7,1′-cyclopentane]-4-one], the IC50 is not above 20 nM at CDK6/Cyclin D1, not above 20 nM on CDK4/Cyclin D1 and 20 to 200 nM in data set [1].

For `CCN1CCN(c2ccc(Nc3ncc(F)c(-c4cc5c(s4)C4(CCCC4)CN(C)C5=O)n3)nc2)C(=O)C1` [Example 86, 2-[2-[[5-(4-Ethyl-2-oxopiperazin-1-yl)pyridin-2-yl]amino]-5-fluoropyrimidin-4-yl]-5-methylspiro[6H-thieno[3,2-c]pyridine-7,1′-cyclopentane]-4-one], the IC50 is 20 to 200 nM on CDK6/Cyclin D1, not above 20 nM on CDK4/Cyclin D1 and 20 to 200 nM in data set [1].

The values above are taken from US20250163074A1, “CDK Inhibitors And Their Use As Pharmaceuticals” (Prelude Therapeutics Incorporated, priority 2020, published 2025).
